Results published in paper PMC2806265, “Divergence of allosteric effects of rapacuronium on binding and function of muscarinic receptors” (BMC Pharmacology, 2009).

What was measured:
[1] = target: T1, M2 muscarinic receptor (Homo sapiens, UniProt P08172); test: Effect of rapacuronium on 1 nM [3H]NMS binding; parameters: host or cells: CHO cells, stably transfected; membrane preparation
T1 sequence (P08172 1-466): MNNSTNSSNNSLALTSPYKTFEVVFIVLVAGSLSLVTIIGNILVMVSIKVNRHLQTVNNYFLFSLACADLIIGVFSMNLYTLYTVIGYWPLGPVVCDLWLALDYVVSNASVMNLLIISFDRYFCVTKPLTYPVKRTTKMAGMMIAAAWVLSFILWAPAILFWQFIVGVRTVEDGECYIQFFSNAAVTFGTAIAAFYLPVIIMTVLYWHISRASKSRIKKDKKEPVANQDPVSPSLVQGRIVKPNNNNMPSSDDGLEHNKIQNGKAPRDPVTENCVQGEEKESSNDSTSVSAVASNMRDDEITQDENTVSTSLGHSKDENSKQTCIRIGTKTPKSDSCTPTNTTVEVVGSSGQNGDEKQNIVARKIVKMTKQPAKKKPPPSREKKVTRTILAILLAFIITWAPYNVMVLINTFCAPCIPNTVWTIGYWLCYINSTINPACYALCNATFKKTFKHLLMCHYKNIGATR
Description: Cooperativity factor greater than 1 denotes negative cooperativity and less than 1 positive cooperativity. Due to its log-normal error distribution factors of cooperativity are expressed as negative logarithms (pα) through the manuscript so negative values denotes negative cooperativity and positive value denotes positive cooperativity.

[2] = target: T1, M2 muscarinic receptor; test: [3H]ACh association and dissociation kinetics; assay type: binding; parameters: host or cells: CHO cells, stably transfected; membrane preparation; conditions: 10 μM rapacuronium, 40 nM [^3H]ACh
Description: y, radioligand binding at time x; kobs, observed rate of association; equilibrium binding Beq = Bottom + Span.
y, radioligand binding at time x normalized to binding at time 0; koff1 and koff2, dissociation rate constants; f2, fraction of binding site with dissociation rate constant koff2. When both Eq. 7a and 7b were fitted to data the better fit was chosen based on sum of squares F-test and runs test.

[3] = target: T2, M4 muscarinic receptor (Homo sapiens, UniProt P08173); test: [35S]GTPγS binding to membranes; assay type: biochemical; parameters: host or cells: CHO cells, stably transfected; membranes; conditions: for EMAX of ACh on [^35S]GTPγS binding: fold of basal
T2 sequence (P08173 1-479): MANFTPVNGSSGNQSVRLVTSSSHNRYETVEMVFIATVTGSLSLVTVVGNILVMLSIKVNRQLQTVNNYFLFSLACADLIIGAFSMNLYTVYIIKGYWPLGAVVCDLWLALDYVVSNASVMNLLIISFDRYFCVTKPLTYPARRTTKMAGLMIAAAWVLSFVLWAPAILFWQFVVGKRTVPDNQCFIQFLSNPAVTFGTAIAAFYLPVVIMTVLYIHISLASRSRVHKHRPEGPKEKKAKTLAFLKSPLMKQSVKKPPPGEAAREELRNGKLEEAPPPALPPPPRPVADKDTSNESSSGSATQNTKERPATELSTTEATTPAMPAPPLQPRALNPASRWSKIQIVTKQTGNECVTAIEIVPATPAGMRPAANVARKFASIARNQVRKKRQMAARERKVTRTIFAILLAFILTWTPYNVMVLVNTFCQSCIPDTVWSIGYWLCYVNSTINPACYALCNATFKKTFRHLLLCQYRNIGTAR
Description: For determination of [^35S]GTPγS binding to G-proteins in membranes a final concentration of 200 pM (M1, M3 and M5 receptors) or 500 pM (M2 and M4 receptors) of [^35S]GTPγS was used. Incubation medium was supplemented with 5 μM (M1, M3 and M5 receptors) or 50 μM (M2 and M4 receptors) GDP. […] Incubation with [^35S]GTPγS was carried out for 20 min and free ligand was removed by filtration as described above. Filtration and washing with ice-cold water lasted for 9 s (wash-aspirate button time).

[4] = target: T3, M1 muscarinic receptor (Homo sapiens, UniProt P11229); test: [3H]ACh saturation binding
T3 construct: host or cells: CHO cells, stably transfected; membrane preparation
T3 sequence (P11229 1-460): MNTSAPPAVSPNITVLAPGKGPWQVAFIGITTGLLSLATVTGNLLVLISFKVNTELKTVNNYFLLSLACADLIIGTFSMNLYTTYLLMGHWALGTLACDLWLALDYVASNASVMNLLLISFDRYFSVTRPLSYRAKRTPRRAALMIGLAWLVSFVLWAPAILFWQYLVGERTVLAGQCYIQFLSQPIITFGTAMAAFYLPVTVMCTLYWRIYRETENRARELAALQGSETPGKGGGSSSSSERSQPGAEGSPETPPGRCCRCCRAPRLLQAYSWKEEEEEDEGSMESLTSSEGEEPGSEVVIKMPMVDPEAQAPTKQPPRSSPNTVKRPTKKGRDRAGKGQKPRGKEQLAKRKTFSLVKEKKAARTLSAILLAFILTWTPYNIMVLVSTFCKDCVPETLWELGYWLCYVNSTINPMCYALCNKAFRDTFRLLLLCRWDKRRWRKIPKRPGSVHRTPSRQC
Description: (§1) BMAX, maximum binding capacity; KD, equilibrium dissociation constant.

[5] = target: T4, M3 muscarinic receptor (Homo sapiens, UniProt P20309); test: [3H]ACh saturation binding
T4 construct: host or cells: CHO cells, stably transfected; membranes
T4 sequence (P20309 whole entry): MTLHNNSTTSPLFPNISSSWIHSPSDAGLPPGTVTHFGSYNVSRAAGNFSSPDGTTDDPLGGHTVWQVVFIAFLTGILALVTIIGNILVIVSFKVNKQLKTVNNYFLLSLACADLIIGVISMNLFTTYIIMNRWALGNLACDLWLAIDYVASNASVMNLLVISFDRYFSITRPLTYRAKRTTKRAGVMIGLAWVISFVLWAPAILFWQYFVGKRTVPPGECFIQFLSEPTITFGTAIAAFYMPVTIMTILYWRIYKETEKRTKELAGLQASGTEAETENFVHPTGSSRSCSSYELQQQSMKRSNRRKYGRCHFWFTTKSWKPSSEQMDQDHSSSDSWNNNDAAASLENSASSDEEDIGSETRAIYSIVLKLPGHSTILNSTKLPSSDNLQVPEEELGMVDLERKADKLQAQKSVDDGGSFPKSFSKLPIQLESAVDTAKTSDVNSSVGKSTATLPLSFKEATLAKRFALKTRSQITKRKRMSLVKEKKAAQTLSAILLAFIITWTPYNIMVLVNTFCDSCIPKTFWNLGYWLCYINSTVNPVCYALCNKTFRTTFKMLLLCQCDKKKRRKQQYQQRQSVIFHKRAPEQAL
Description: as §1

[6] = target: T3, M1 muscarinic receptor; test: Effect of rapacuronium on low-affinity ACh binding ([3H]NMS + GTPγS + ACh)
Description: (§2) Data are expressed as percent of specific binding in the absence of rapacuronium. […] Data are means ± SE from 3 independent experiments performed in quadruplicates. Curves are fits of Eq. 3 (circles) and Eq. 4 (squares and triangles) to data prior to normalization.

[7] = target: T4, M3 muscarinic receptor; test: as above
Description: as §2

[8] = read-out: pKA of rapacuronium (converted)

C=CC[N+]1([C@H]2C[C@H]3[C@@H]4CC[C@H]5C[C@H](OC(C)=O)[C@@H](N6CCCCC6)C[C@]5(C)[C@H]4CC[C@]3(C)[C@H]2OC(=O)CC)CCCCC1 [rapacuronium]
decrease in affinity of [^3H]NMS (cooperativity) ([1]; M2): 6.8 fold
pα, cooperativity with [^3H]NMS ([1]; M2, negative value = negative cooperativity): -0.83 ± 0.07
Kd [1, 8]: 2.57 µM
time of peak of [^3H]ACh association [2]: around 90 seconds
EC50 [3]: 36.3 µM
EMAX of ACh on [^35S]GTPγS binding ([3]; M4, + 0.1 μM rapacuronium): 2.95 ± 0.11
EMAX of ACh on [^35S]GTPγS binding ([3]; M4, + 1 μM rapacuronium): 2.80 ± 0.12
EMAX of ACh on [^35S]GTPγS binding ([3]; M4, + 10 μM rapacuronium): 2.32 ± 0.16
EMAX of rapacuronium on [^35S]GTPγS binding ([3]; M4, rapacuronium alone, normalized to absence of rapacuronium): 0.86 ± 0.06
BMAX of [^3H]ACh ([4]; + 10 μM rapacuronium): 0.33 ± 0.05 fmol/μg of protein
BMAX of [^3H]ACh ([4]; + 100 μM rapacuronium): 0.32 ± 0.05 fmol/μg of protein
BMAX of [^3H]ACh ([5]; + 10 μM rapacuronium): 0.40 ± 0.04 fmol/μg of protein
BMAX of [^3H]ACh ([5]; + 100 μM rapacuronium): 0.37 ± 0.05 fmol/μg of protein
Kd [6]: 4.68 µM
pβ, cooperativity with ACh low affinity binding ([6]; M1, negative value = negative cooperativity): -1.32 ± 0.06
decrease in ACh low-affinity binding (cooperativity) ([7]; M3): 16 fold
pβ, cooperativity with ACh low affinity binding ([7]; M3, negative value = negative cooperativity): -1.20 ± 0.07
Kd [7, 8]: 17 µM
